Ki data for 17 compounds are collected here from patent US8067613B2 (Abbott Laboratories, priority 2007, dated 2011).

In this experiment the target is T1, Recombinant Human Poly(ADP-Ribose)Polymerase (PARP), PARP-1 (Homo sapiens, UniProt P09874).
T1 construct: purchased Trevigen (Gaithersburg, Md.); host or cells: E. coli
T1 sequence (P09874 whole entry): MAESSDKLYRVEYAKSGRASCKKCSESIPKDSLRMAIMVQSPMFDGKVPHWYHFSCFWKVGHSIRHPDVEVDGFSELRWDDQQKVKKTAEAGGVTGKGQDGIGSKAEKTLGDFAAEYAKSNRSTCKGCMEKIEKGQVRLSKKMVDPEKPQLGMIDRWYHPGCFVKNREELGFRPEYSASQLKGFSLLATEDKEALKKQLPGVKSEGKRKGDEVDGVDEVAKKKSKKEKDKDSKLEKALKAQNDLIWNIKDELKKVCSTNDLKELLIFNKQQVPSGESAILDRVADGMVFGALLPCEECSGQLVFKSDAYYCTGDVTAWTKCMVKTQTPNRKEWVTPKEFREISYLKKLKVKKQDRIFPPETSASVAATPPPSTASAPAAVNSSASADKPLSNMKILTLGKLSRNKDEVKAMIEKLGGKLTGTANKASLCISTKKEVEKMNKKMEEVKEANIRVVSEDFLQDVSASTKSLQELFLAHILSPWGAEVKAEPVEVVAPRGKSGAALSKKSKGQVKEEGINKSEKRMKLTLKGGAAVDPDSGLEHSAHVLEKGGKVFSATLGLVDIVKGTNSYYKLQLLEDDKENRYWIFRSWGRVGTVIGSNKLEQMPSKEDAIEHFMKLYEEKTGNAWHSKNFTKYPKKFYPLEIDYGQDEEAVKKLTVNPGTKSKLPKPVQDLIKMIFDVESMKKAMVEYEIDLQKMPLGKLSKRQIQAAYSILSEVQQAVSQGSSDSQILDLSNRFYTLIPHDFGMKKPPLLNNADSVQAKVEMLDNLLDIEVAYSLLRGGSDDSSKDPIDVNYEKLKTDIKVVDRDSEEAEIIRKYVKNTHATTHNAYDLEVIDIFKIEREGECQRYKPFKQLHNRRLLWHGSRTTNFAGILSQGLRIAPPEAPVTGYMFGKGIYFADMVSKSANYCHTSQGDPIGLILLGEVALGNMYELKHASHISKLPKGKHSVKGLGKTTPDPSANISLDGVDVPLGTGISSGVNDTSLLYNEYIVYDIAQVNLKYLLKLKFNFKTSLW
The experiment is described as follows: PARP1 assay (SPA/FlashPlate, [3H]-NAD+ incorporation into biotinylated histone H1). Format: biochemical. Particulars: 1 nM PARP enzyme, 1.5 μM [3H]-NAD+, 200 nM biotinylated histone H1, 200 nM slDNA; Ki from inhibition curves at various substrate concentrations. On the procedure:
Nicotinamide[2,5′,8-3H]adenine dinucleotide and strepavidin SPA beads were obtained from Amersham Biosiences (UK). Recombinant Human Poly(ADP-Ribose)Polymerase (PARP), purified from E. coli and 6-Biotin-17-NAD^+, were obtained from Trevigen (Gaithersburg, Md.). NAD^+, histone, aminobenzamide, 3-aminobenzamide and Calf Thymus DNA (dcDNA) were obtained from Sigma (St. Louis, Mo.). Stem loop oligonucleotide containing MCAT sequence was obtained from Qiagen. The oligos were dissolved to 1 mM in annealing buffer containing 10 mM Tris HCl (pH 7.5), 1 mM EDTA, and 50 mM NaCl, incubated for 5 minutes at 95° C. and annealed at 45° C. for 45 minutes. Histone H1 (95% electrophoretically pure) was obtained from Roche (Indianapolis, Ind. Biotinylated histone H1 was prepared by treating the protein with Sulfo-NHS-LC-Biotin (Pierce Rockford, Ill.). The biotinylation reaction was conducted by slowly and intermittently adding 3 equivalents of 10 mM Sulfo-NHS-LC-Biotin to 100 μM Histone H1 in phosphate-buffered saline, pH 7.5, at 4° C. with gentle vortexing over 1 minute then incubation at 4° C. for 1 hour. Streptavidin coated (FlashPlate Plus) microplates were obtained from Perkin Elmer (Boston, Mass.).
PARP1 assay was conducted in PARP assay buffer containing 50 mM tris (pH 8.0), 1 mM DTT and 4 mM MgCl2. PARP reactions contained 1.5 μM [^3H]-NAD^+ (1.6 μCi/mmol), 200 nM biotinylated histone H1, 200 nM slDNA, and 1 nM PARP enzyme. Auto reactions utilizing SPA bead-based detection were carried out in 100 μL volumes in white 96 well plates.
Reactions were initiated by adding 50 μL of 2×NAD^+ substrate mixture to 50 μL of 2× enzyme mixture containing PARP and DNA. These reactions were terminated by the addition of 150 μL of 1.5 mM benzamide (1000-fold over its IC50). 170 μL of the stopped reaction mixtures were transferred to streptavidin Flash Plates, incubated for 1 hour and counted using a TopCount microplate scintillation counter. The Ki data (in nM) for representative compounds of this invention were determined from inhibition curves at various substrate concentrations and are shown in TABLE 1.
Consider `CCCN1CCCC1c1ccc(-c2nc3c(C(N)=O)cccc3[nH]2)s1` (centres unmarked) [Example 37, 2-(5-(1-propylpyrrolidin-2-yl)thien-2-yl)-1H-benzimidazole-4-carboxamide], for which the Ki came to 7 nM.

Consider `NC(=O)c1cccc2[nH]c(-c3ccc(C4CCCN4CC4CC4)s3)nc12` (centres unmarked) [Example 38, 2-(5-(1-(cyclopropylmethyl)pyrrolidin-2-yl)thien-2-yl)-1H-benzimidazole-4-carboxamide], for which the Ki came to 6 nM.

As to `CC(C)CN1CCCC1c1ccc(-c2nc3c(C(N)=O)cccc3[nH]2)s1` (centres unmarked) [Example 39, 2-(5-(1-isobutylpyrrolidin-2-yl)thien-2-yl)-1H-benzimidazole-4-carboxamide], the Ki is 11 nM.

With `NC(=O)c1cccc2[nH]c(-c3ccc(C4CCCN4C4CCC4)s3)nc12` (centres unmarked) [Example 40, 2-(5-(1-cyclobutylpyrrolidin-2-yl)thien-2-yl)-1H-benzimidazole-4-carboxamide], the Ki was determined as 10 nM.

Regarding `NC(=O)c1cccc2[nH]c(-c3ccc(C4CCCN4C4CCCC4)s3)nc12` (centres unmarked) [Example 41, 2-(5-(1-cyclopentylpyrrolidin-2-yl)thien-2-yl)-1H-benzimidazole-4-carboxamide], the Ki came to 5 nM.

For the compound `NC(=O)c1cccc2[nH]c(-c3ccc(C4CCCN4C4CCCCC4)s3)nc12` (centres unmarked) [Example 42, 2-(5-(1-cyclohexylpyrrolidin-2-yl)thien-2-yl)-1H-benzimidazole-4-carboxamide], the Ki was found to be 12 nM.

Regarding `NC(=O)c1cccc2[nH]c(-c3ccc(C4CCCN4)nc3)nc12` (centres unmarked) [Example 43, 2-(6-pyrrolidin-2-ylpyridin-3-yl)-1H-benzimidazole-4-carboxamide], the Ki came out at 3 nM.

On to `CC(C)N1CCCC1c1ccc(-c2nc3c(C(N)=O)cccc3[nH]2)cn1` (centres unmarked) [Example 44, 2-[6-(1-isopropylpyrrolidin-2-yl)pyridin-3-yl]-1H-benzimidazole-4-carboxamide], for which the Ki is 41 nM.

Take `CC(C)CN1CCCC1c1ccc(-c2nc3c(C(N)=O)cccc3[nH]2)cn1` (centres unmarked) [Example 45, 2-[6-(1-isobutylpyrrolidin-2-yl),pyridin-3-yl]-1H-benzimidazole-4-carboxamide]: the Ki is 11 nM.

Regarding `NC(=O)c1cccc2[nH]c(-c3ccc(C4CCCN4C4CCC4)nc3)nc12` (centres unmarked) [Example 46, 2-[6-(1-cyclobutylpyrrolidin-2-yl),pyridin-3-yl]-1H-benzimidazole-4-carboxamide], the Ki worked out at 17 nM.

On to `NC(=O)c1cccc2[nH]c(-c3ccc(C4CCCN4C4CCCC4)nc3)nc12` (centres unmarked) [Example 47, 2-[6-(1-cyclopentylpyrrolidin-2-yl),pyridin-3-yl]-1H-benzimidazole-4-carboxamide], for which the inhibition constant Ki turned out to be 14 nM.

On to `NC(=O)c1cccc2[nH]c(-c3ccc(C4CCCN4C4CCCCC4)nc3)nc12` (centres unmarked) [Example 48, 2-[6-(1-cyclohexylpyrrolidin-2-yl),pyridin-3-yl]-1H-benzimidazole-4-carboxamide], for which the Ki amounted to 14 nM.

Take `NC(=O)c1cccc2[nH]c(-c3ccc(C4CCCN4C4CCOCC4)nc3)nc12` (centres unmarked) [Example 49, 2-[6-(1-tetrahydro-2H-pyran-4-ylpyrrolidin-2-yl),pyridin-3-yl]-1H-benzimidazole-4-carboxamide]: the Ki is 17 nM.

Take `NC(=O)c1cccc2[nH]c(-c3ccc(-c4cnco4)nc3)nc12` [Example 50, 2-[6-(1,3-oxazol-5-yl)pyridin-3-yl]-1H-benzimidazole-4-carboxamide]: the Ki is 0.8 nM.

Take `NC(=O)c1cccc2[nH]c(-c3ccc(-c4nnco4)cn3)nc12` [Example 51, 2-[5-(1,3,4-oxadiazol-2-yl)pyridin-2-yl]-1H-benzimidazole-4-carboxamide]: the Ki is 1.8 nM.

On to `NC(=O)c1cccc2[nH]c(-c3ccc(-c4nnc(C(F)(F)F)o4)cn3)nc12` [Example 52, 2-{5-[5-(trifluoromethyl)-1,3,4-oxadiazol-2-yl]pyridin-2-yl}-1H-benzimidazole-4-carboxamide], for which the Ki turned out to be 14 nM.

In the case of `Cc1nnc(-c2ccc(-c3nc4c(C(N)=O)cccc4[nH]3)nc2)o1` [Example 53, 2-[5-(5-methyl-1,3,4-oxadiazol-2-yl)pyridin-2-yl]-1H-benzimidazole-4-carboxamide], the Ki was 317 nM.

What is called Ki is a measure of affinity in units of concentration, obtained from inhibition or displacement.
